IC50 data for 44 molecules are collected here from US12152038B2, “Vasopressin receptor antagonists and products and methods related thereto” (Neumora Therapeutics, Inc., priority 2017, dated 2024).

Bounds are passed on as bounds.

Assay [1] deals with T1, human Arginine Vasopressin Receptor 1a (AVPR1a) (Homo sapiens, UniProt P37288).
T1 construct: expressed in transfected cells; host or cells: CHO (CHO-AVPR1a, kept under G418 selection)
As to the kind of experiment: Vasopressin V1a receptor antagonist assay (FLIPR calcium, CHO-AVPR1a cells). It is filed as cell-based. The gist of the method: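 CHO cells expressing human AVPR1a were loaded with Calcium-6 dye and preincubated with compound for 15 min at 37° C. Cells were then challenged with AVP at its daily-determined EC80, and FLIPR fluorescence was read. Compounds were tested in duplicate as 10-point 1:3 dilutions from a top final concentration of 3 μM.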

Assay [2] has as its target T2, human Oxytocin Receptor (hOTR) (Homo sapiens, UniProt P30559).
T2 construct: host or cells: CHEM-1 (ready-to-assay frozen cells)
T2 sequence (P30559 1-389): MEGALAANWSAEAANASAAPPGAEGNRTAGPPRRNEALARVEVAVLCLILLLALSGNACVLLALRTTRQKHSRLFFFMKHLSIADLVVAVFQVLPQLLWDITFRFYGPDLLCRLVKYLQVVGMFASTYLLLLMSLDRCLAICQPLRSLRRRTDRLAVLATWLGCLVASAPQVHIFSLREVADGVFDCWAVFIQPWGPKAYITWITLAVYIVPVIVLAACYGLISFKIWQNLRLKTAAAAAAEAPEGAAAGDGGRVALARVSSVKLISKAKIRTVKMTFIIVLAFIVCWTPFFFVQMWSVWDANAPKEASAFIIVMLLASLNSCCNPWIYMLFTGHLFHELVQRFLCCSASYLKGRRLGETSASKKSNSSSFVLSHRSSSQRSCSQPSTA
As to the kind of experiment: Oxytocin receptor (OTR) antagonist assay (FLIPR calcium, CHEM-1-hOTR cells). It is filed as cell-based. The gist of the method: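 CHEM-1 cells expressing human OTR were loaded with Calcium-6 dye in HBSS/20 mM HEPES and preincubated with compound (10-point, 1:3 series) for 15 min at 37° C. Cells were then challenged with oxytocin at its daily-determined EC80. Calcium fluorescence was read on FLIPR for 3 min after each addition.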

T1 sequence (P37288 whole entry): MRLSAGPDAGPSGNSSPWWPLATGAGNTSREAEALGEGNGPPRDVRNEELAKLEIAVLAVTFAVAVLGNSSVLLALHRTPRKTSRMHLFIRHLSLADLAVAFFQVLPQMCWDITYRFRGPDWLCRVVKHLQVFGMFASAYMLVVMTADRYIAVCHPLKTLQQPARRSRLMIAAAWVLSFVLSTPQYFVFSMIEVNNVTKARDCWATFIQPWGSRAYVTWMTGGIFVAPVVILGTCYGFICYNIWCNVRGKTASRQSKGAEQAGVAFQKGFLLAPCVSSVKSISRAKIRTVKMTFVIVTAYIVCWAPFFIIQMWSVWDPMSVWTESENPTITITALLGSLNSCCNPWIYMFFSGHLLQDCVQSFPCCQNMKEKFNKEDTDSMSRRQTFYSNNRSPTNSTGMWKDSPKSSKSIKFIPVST

For orientation: IC50 means the concentration that inhibits the measured activity by half. Regarding `CC1COc2cc(Cl)ccc2N1C(=O)N1CC2(C1)CN(c1ccc(F)cn1)C2` (single isomer, unassigned) [1-73-A], the IC50 in assay [1] is under 100 nM.
Turning to `Cc1nccc(N2CC3(CN(C(=O)N4c5ccc(Cl)cc5OCC4C)C3)C2)n1` (centres unmarked) [21-8], the IC50 in assay [1] is under 100 nM; in assay [2], 100 to 500 nM.
The like results for `CC1COc2cc(F)ccc2N1C(=O)N1CC2(C1)CN(c1cnccn1)C2` (single isomer, unassigned) [1-65-B] were, in that order, under 100 nM and 100 to 500 nM.
With `O=C(N1CC2(C1)CN(c1cccnc1)C2)N1CCOc2cc(Cl)ccc21` [1-72], in assay [1], the IC50 is under 100 nM.
For the molecule `Cc1cc(F)nc(N2CC3(CN(C(=O)N4CCOc5cc(Cl)ccc54)C3)C2)c1` [1-45], the IC50 in assay [1] was under 100 nM.
For the molecule `CC1COc2cc(Cl)ccc2N1C(=O)N1CC2(C1)CN(c1ccccn1)C2` (single isomer, unassigned) [1-60-B], the IC50 in assay [1] and in assay [2] was under 100 nM each time.
Take `N#Cc1ccnc(N2CC3(CN(C(=O)N4CCOc5cc(Cl)ccc54)C3)C2)c1` [1-53]: the IC50 in assay [1] was under 100 nM.
Take `O=C(N1CC2(C1)CN(c1cc(F)cc(F)n1)C2)N1CCOc2cc(Cl)ccc21` [1-51]: the IC50 in assay [1] is under 100 nM; in assay [2] it was at least 1000 nM.
For the molecule `CC1COc2cc(F)ccc2N1C(=O)N1CC2(C1)CN(c1ncccc1F)C2` (single isomer, unassigned) [1-67-A], the IC50 in assay [1] is under 100 nM; in assay [2], 100 to 500 nM.
Consider `Cc1cncc(N2CC3(CN(C(=O)N4c5ccc(Cl)cc5OCC4C)C3)C2)n1` (centres unmarked) [21-3], for which the IC50 in assay [1] and in assay [2] was under 100 nM throughout.
For the molecule `Cc1nc(N2CC3(CN(C(=O)N4CCOc5cc(Cl)ccc54)C3)C2)ccc1F` [1-30], the values for the IC50 in assay [1] and in assay [2] were under 100 nM and 500 to 1000 nM, respectively.
The like results for `CCC1COc2cc(Cl)ccc2N1C(=O)N1CC2(C1)CN(c1ccc(F)cn1)C2` (single isomer, unassigned) [1-55-B] were, in that order, under 100 nM and under 100 nM.
As for `CC1COc2cc(Cl)ccc2N1C(=O)N1CC2(C1)CN(c1ccccn1)C2` (centres unmarked) [1-60], the IC50 in assay [1] and in assay [2] was under 100 nM throughout.
As to `CCc1cnc(N2CC3(CN(C(=O)N4c5ccc(Cl)cc5OCC4C)C3)C2)nc1` (centres unmarked) [21-9], the IC50 is under 100 nM in assay [1] and at least 1000 nM in assay [2].
On to `CC1COc2cc(Cl)ccc2N1C(=O)N1CC2(C1)CN(c1ncc(F)cn1)C2` (single isomer, unassigned) [18-2-B], for which the IC50 in assay [2] was in the range of 100 to 500 nM.
In the case of `Cc1cc(N2CC3(CN(C(=O)N4c5ccc(Cl)cc5OCC4C)C3)C2)ncn1` (centres unmarked) [21-11], in assay [1], the IC50 is under 100 nM.
As for `O=C(N1CC2(C1)CN(c1ccc(F)cn1)C2)N1CCC(O)c2cc(Cl)ccc21` (single isomer, unassigned) [13-1-B], the IC50 in assay [2] is at least 1000 nM.
Turning to `COc1nccnc1N1CC2(CN(C(=O)N3CCOc4cc(Cl)ccc43)C2)C1` [1-43], in assay [1], the IC50 is under 100 nM.
Take `CC1COc2cc(F)ccc2N1C(=O)N1CC2(C1)CN(c1ncccc1F)C2` (centres unmarked) [1-67]: the figures for the IC50 in assay [1] and in assay [2] were under 100 nM and 100 to 500 nM, respectively.
Consider `O=C(N1CC2(C1)CN(c1cc(F)ccn1)C2)N1CCOc2cc(Cl)ccc21` [1-70], for which the IC50 is under 100 nM in assay [1] and at least 1000 nM in assay [2].
Turning to `CC1COc2cc(Cl)ccc2N1C(=O)N1CC2(C1)CN(c1nccc(C(F)(F)F)n1)C2` (centres unmarked) [21-10], the half-maximal inhibitory concentration (IC50) in assay [1] was under 100 nM; in assay [2], 500 to 1000 nM.
For `O=C(N1CC2(C1)CN(c1cnc(F)cn1)C2)N1CCOc2cc(Cl)ccc21` [1-18], in assay [1], the IC50 is under 100 nM.
As to `Cc1cnc(N2CC3(CN(C(=O)N4c5ccc(Cl)cc5OCC4C)C3)C2)nc1` (single isomer, unassigned) [20-13-B], the IC50 in assay [1] was under 100 nM.
On to `CC1COc2cc(Cl)ccc2N1C(=O)N1CC2(C1)CN(c1cnccn1)C2` (single isomer, unassigned) [1-58-B], for which the IC50 in assay [1] and in assay [2] was under 100 nM in each case.
`CC1COc2cc(Cl)ccc2N1C(=O)N1CC2(C1)CN(c1ncccc1C#N)C2` (centres unmarked) [21-2]: the IC50 in assay [1] was under 100 nM; in assay [2] it was 100 to 500 nM.
In the case of `N#Cc1cccc(N2CC3(CN(C(=O)N4CCOc5cc(Cl)ccc54)C3)C2)n1` [1-39], the IC50 was under 100 nM in assay [1] and 100 to 500 nM in assay [2].
As to `Cc1cncc(N2CC3(CN(C(=O)N4CCOc5cc(Cl)ccc54)C3)C2)n1` [1-22], the IC50 in assay [1] was under 100 nM; in assay [2], at least 1000 nM.
In the case of `O=C(N1CC2(C1)CN(c1ccc(F)cn1)C2)N1CCOc2cc(F)ccc21` [1-64], the IC50 in assay [1] was under 100 nM.
With `CC1COc2cc(Cl)ccc2N1C(=O)N1CC2(C1)CN(c1ncncc1F)C2` (centres unmarked) [21-5], the values for the IC50 in assay [1] and in assay [2] were under 100 nM and 100 to 500 nM, respectively.
Regarding `CC1COc2cc(Cl)ccc2N1C(=O)N1CC2(C1)CN(c1ncccc1F)C2` (single isomer, unassigned) [1-57-A], the IC50 in assay [1] is under 100 nM.
As to `Cc1cnc(N2CC3(CN(C(=O)N4CCOc5cc(Cl)ccc54)C3)C2)cn1` [1-20], in assay [1], the IC50 was under 100 nM.
Regarding `CC1COc2cc(Cl)ccc2N1C(=O)N1CC2(C1)CN(c1cc(=O)n(C)cn1)C2` (single isomer, unassigned) [20-14-B], the IC50 in assay [1] is under 100 nM.
For `O=C(N1CC2(C1)CN(c1ccc(F)c(F)n1)C2)N1CCOc2cc(Cl)ccc21` [1-49], in assay [1], the IC50 was under 100 nM.
On to `CC1COc2cc(Cl)ccc2N1C(=O)N1CC2(C1)CN(c1noc3ccccc13)C2` (centres unmarked) [21-1, (6-(benzo[d]isoxazol-3-yl)-2,6-diazaspiro[3.3]heptan-2-yl)(7-chloro-3-methyl-2,3-dihydro-4H-benzo[b][1,4]oxazin-4-yl)methanone], for which the half-maximal inhibitory concentration (IC50) in assay [1] is under 100 nM; in assay [2], 500 to 1000 nM.
In the case of `CC1COc2cc(Cl)ccc2N1C(=O)N1CC2(C1)CN(c1ccc(F)cn1)C2` (single isomer, unassigned) [1-73-B], the IC50 in assay [1] and in assay [2] was under 100 nM each time.
Take `Cc1cccc(N2CC3(CN(C(=O)N4CCOc5cc(Cl)ccc54)C3)C2)n1` [1-3]: the results for the IC50 in assay [1] and in assay [2] were under 100 nM and 500 to 1000 nM, respectively.
For `O=C(N1CC2(C1)CN(c1cccnn1)C2)N1CCOc2cc(Cl)ccc21` [1-71], in assay [1], the IC50 was under 100 nM.
As for `CC1COc2cc(Cl)ccc2N1C(=O)N1CC2(C1)CN(c1nn(C)c3ncccc13)C2` (single isomer, unassigned) [20-15-B], the IC50 in assay [1] was under 100 nM; in assay [2], 500 to 1000 nM.
With `Cc1cnnc(N2CC3(CN(C(=O)N4c5ccc(Cl)cc5OCC4C)C3)C2)c1` (centres unmarked) [21-4], the IC50 in assay [1] is under 100 nM; in assay [2], 500 to 1000 nM.
For the molecule `COc1ccc(N2CC3(CN(C(=O)N4CCOc5cc(Cl)ccc54)C3)C2)nc1` [1-68], the IC50 in assay [1] was under 100 nM.
For the molecule `O=C(N1CC2(C1)CN(c1cccc(F)n1)C2)N1CCOc2cc(Cl)ccc21` [1-69], the IC50 was under 100 nM in assay [1] and at least 1000 nM in assay [2].
Take `COc1ccc2c(c1)OCC(C)N2C(=O)N1CC2(C1)CN(c1ccc(F)cn1)C2` (single isomer, unassigned) [1-59-B]: the values for the IC50 in assay [1] and in assay [2] were under 100 nM and 100 to 500 nM, respectively.
In the case of `CC1COc2cc(F)ccc2N1C(=O)N1CC2(C1)CN(c1ccccn1)C2` (single isomer, unassigned) [1-66-B], the IC50 in assay [1] is under 100 nM; in assay [2] it was 100 to 500 nM.
Turning to `CC1COc2cc(Cl)ccc2N1C(=O)N1CC2(C1)CN(c1ccncn1)C2` (centres unmarked) [21-6], the IC50 in assay [1] is under 100 nM; in assay [2] it was 100 to 500 nM.
